Legend:
EGFR (del19/T790M/C797S) = experiment: HTRF inhibitory activity assay against EGFR (del19/T790M/C797S) enzyme; format: biochemical
Method in brief: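 Wild-type or mutant EGFR preincubated with serially diluted compound 10 min at 28 °C, then reacted 40 min at room temperature with biotinylated TK substrate and ATP. Phosphorylation detected by HTRF (Eu-cryptate anti-TK antibody, streptavidin-XL665, 60 min), 665/615 nm ratio; % inhibition and IC50 vs control.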

[1] = biological target: Ba/F3 (EGFR^del19/T790M/C797S) triple-mutant cells (Homo sapiens, UniProt P00533, T790M/C797S, cells depend on it, form not given); experiment: Antiproliferative activity against Ba/F3 (EGFR del19/T790M/C797S) triple-mutant cells, Cell Titer Glow; format: cell-based; settings: three days after addition of compounds; read-out: Antiproliferative activity BaF3(EGFR^del19/T790M/C797S) IC50
Ba/F3 (EGFR^del19/T790M/C797S) triple-mutant cells, sequence (P00533 with tags, fused parts or gaps DEL746-750/T790M/C797S, form open): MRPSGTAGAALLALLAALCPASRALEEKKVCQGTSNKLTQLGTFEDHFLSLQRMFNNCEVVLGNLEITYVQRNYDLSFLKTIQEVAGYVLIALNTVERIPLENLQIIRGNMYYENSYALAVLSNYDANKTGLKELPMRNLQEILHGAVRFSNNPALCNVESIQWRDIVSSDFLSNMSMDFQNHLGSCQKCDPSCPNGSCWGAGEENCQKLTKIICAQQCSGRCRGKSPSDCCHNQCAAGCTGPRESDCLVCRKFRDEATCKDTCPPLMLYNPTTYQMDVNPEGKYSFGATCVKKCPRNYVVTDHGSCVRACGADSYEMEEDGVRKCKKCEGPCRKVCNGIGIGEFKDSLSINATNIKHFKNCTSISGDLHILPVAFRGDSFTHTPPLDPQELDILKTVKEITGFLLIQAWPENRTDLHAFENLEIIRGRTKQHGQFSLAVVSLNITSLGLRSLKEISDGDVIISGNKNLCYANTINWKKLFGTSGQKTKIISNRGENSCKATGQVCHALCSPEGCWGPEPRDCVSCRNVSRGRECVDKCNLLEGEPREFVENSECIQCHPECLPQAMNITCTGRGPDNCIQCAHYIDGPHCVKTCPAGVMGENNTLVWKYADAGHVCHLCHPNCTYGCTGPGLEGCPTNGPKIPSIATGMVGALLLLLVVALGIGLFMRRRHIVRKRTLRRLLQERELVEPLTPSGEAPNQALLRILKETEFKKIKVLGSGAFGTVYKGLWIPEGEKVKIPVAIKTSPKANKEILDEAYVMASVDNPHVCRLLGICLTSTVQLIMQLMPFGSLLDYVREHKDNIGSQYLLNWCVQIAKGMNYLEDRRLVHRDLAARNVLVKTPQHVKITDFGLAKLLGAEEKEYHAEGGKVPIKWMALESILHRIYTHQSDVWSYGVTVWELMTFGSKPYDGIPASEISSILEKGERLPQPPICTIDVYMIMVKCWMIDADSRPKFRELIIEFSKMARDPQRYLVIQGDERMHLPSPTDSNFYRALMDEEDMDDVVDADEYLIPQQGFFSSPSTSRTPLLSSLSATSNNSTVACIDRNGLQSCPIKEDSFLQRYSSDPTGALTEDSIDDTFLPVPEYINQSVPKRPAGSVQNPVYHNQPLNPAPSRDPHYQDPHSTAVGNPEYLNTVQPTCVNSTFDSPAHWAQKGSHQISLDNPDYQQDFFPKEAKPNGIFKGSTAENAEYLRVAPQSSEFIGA
Method: (§1) Antiproliferative Activity of the Compounds Disclosed Herein Against Ba/F3 (EGFR^del19/T790M/C797S) Triple-Mutant Cells and A431 (EGFR WT) Cells
(§2) • 3000 Ba/F3 cells carrying EGFR (del19/T790M/C797S) or 2000 A431 cells were seeded in a 384-well plate. After one day, serially diluted compounds were added (up to 500 nM for Ba/F3 cells and up to 10 μM for A431 cells). Three days after the addition of the compounds, Cell Titer Glow was added to evaluate cell growth and the percentage cell growth inhibition by the compounds and the IC50 values were calculated.

A431 (EGFR WT) cells = experiment: Antiproliferative activity against A431 (EGFR WT) cells, Cell Titer Glow; format: cell-based; settings: Homo sapiens, A-431, 72 h; three days after addition of compounds; read-out: Antiproliferative activity A431 wild-type (WT) IC50
Method: as §1, §2

GI50 [1] [µM]	IC50 (A431 (EGFR WT) cells) [µM]	SMILES	EGFR (del19/T790M/C797S) inhibition (%) (0.3 nM compound) (EGFR (del19/T790M/C797S))
0.082	4.1	CN1CCN(c2ccc(Nc3nc(NC4CCOCC4)c(-c4ccncc4)nc3C(N)=O)cc2)CC1 [compound 118]	++ (++ indicates an inhibition from 20% to 50%)
0.032	0.36	CC(C)Nc1nc(Nc2ccc(N3CCC(N4CCN(C)CC4)CC3)cc2)c(C(N)=O)nc1-c1cc[nH]n1 [compound 616]	+++ (+++ indicates an inhibition greater than 50%.)
0.018	0.05	CN1CCN(C2CCN(c3ccc(Nc4nc(N[C@@H]5CCC[C@@H]5O)c(-c5cccc6[nH]ccc56)nc4C(N)=O)cc3)CC2)CC1 [compound 529]	+++ (+++ indicates an inhibition greater than 50%.)
0.025	0.06	CN1CCN(C2CCN(c3ccc(Nc4nc(N[C@H]5C[C@H](O)C5)c(-c5cccc6[nH]ccc56)nc4C(N)=O)cc3)CC2)CC1 [compound 525]	+++ (+++ indicates an inhibition greater than 50%.)
0.04	0.34	CN1CCN(C2CCN(c3ccc(Nc4nc(NC5CCC(O)C5)c(-c5ccccc5)nc4C(N)=O)cc3)CC2)CC1 (stereo not drawn) [compound 135, 5-((3-hydroxycyclopentyl)amino)-3-((4-(4-(4-methylpiperazin-1-yl)piperidin-1-yl)phenyl)amino)-6-phenylpyrazine-2-carboxamide]	
0.226	> 10	Cc1cc(Nc2nc(NC3CCOCC3)c(-c3ccccn3)nc2C(N)=O)ccc1N1CCC(N2CCN(C)CC2)CC1 [compound 213]	
0.013	0.07	CN1CCN(C2CCN(c3ccc(Nc4nc(NCC(C)(C)O)c(-c5cccc6[nH]ccc56)nc4C(N)=O)cc3)CC2)CC1 [compound 528]	+++ (+++ indicates an inhibition greater than 50%.)
0.052	0.28	CN1CCN(C2CCN(c3ccc(Nc4nc(NC5CCOCC5)c(-c5cncs5)nc4C(N)=O)cc3)CC2)CC1 [compound 88]	
0.119	0.68	CN1CCN(Cc2ccc(Nc3nc(NC4CCOCC4)c(-c4ccncc4)nc3C(N)=O)cc2)CC1 [compound 120]	+ (+ indicates an inhibition less than or equal to 20%)
0.14	> 10	NC(=O)c1nc(-c2ccncc2)c(NC2CCOCC2)nc1Nc1ccc(CN2CCOCC2)cc1 [compound 123]	++ (++ indicates an inhibition from 20% to 50%)
0.098	0.33	COc1cc(Nc2nc(NC3CC4(COC4)C3)c(-c3cc[nH]n3)nc2C(N)=O)ccc1N1CCC(N2CCN(C)CC2)CC1 [compound 504]	
0.018	0.98	CCc1cc(Nc2nc(NC3CCOCC3)c(-c3cc[nH]n3)nc2C(N)=O)ccc1N1CCC(N2CCN(C)CC2)CC1 [compound 184]	
0.021	0.36	CC(C)Nc1nc(Nc2ccc(N3CCC(N4CCN(C)CC4)CC3)cc2)c(C(N)=O)nc1-c1ccncc1 [compound 611]	+++ (+++ indicates an inhibition greater than 50%.)
0.006	0.02	CN1CCN(C2CCN(c3ccc(Nc4nc(NC5CCOCC5)c(-c5ccnc6[nH]ccc56)nc4C(N)=O)cc3)CC2)CC1 [compound 512]	+++ (+++ indicates an inhibition greater than 50%.)
> 0.1	> 10	CN(C)c1ccc(Nc2nc(NC3CCOCC3)c(-c3ccncc3)nc2C(N)=O)cc1 [compound 124]	+ (+ indicates an inhibition less than or equal to 20%)
0.027	0.23	CN1CCN(C2CCN(c3ccc(Nc4nc(N[C@@H]5CCC[C@H](O)C5)c(-c5ccccc5)nc4C(N)=O)cc3)CC2)CC1 [compound 141]	

The remaining lines, values behind:

SMILES	GI50 [1] [µM]	IC50 (A431 (EGFR WT) cells) [µM]	EGFR (del19/T790M/C797S) inhibition (%) (0.3 nM compound) (EGFR (del19/T790M/C797S))
CN1CCN(C2CCN(c3ccc(Nc4nc(NC5CCOCC5)c(-c5cccnc5)nc4C(N)=O)cc3)CC2)CC1 [compound 37]	0.048	> 2	+ (+ indicates an inhibition less than or equal to 20%)
NC(=O)c1nc(-c2ccncc2)c(NC2CCOCC2)nc1Nc1ccccc1 [compound 119]	> 0.1	> 10	+ (+ indicates an inhibition less than or equal to 20%)
Cc1cc(Nc2nc(NC3CCOCC3)c(-c3cc[nH]n3)nc2C(N)=O)ccc1N1CCC(N2CCN(C)CC2)CC1 [compound 177]	0.019	0.69	++ (++ indicates an inhibition from 20% to 50%)
CN1CCN(C2CCN(c3ccc(Nc4nc(NC5CCOCC5)c(-c5cncc6[nH]ccc56)nc4C(N)=O)cc3)CC2)CC1 [compound 538]	0.035	0.29	
CC(C)c1cc(Nc2nc(NC3CCOCC3)c(-c3cc[nH]n3)nc2C(N)=O)ccc1N1CCC(N2CCN(C)CC2)CC1 [compound 420]	0.032	3.7	
CN1CCN(C2CCN(c3ccc(Nc4nc(NC5CCOCC5)c(-c5cc[nH]n5)nc4C(N)=O)cc3C3CC3)CC2)CC1 [compound 421]	0.036	0.53	
Cc1n[nH]cc1-c1nc(C(N)=O)c(Nc2ccc(N3CCC(N4CCN(C)CC4)CC3)cc2)nc1NC1CCOCC1 [compound 110]	> 0.1	0.46	+ (+ indicates an inhibition less than or equal to 20%)
CN1CCN(c2ccc(Nc3nc(NC4CCOCC4)c(-c4cc[nH]n4)nc3C(N)=O)cc2)CC1 [compound 174]	0.051	1	
CN1CCN(C2CCN(c3ccc(Nc4nc(NCCS(C)(=O)=O)c(-c5ccccc5)nc4C(N)=O)cc3)CC2)CC1 [compound 54]	> 0.1	3.5	+ (+ indicates an inhibition less than or equal to 20%)
COc1cc(Nc2nc(NC3CCOCC3)c(-c3cc[nH]n3)nc2C(N)=O)ccc1N1CCC(N2CCN(C)CC2)CC1 [compound 417]	0.057	0.19	
CN1CCN(C2CCN(c3ccc(Nc4nc(NC5CCOCC5)c(-c5cccc6[nH]cnc56)nc4C(N)=O)cc3)CC2)CC1 [compound 540]	0.048	1.2	
Cc1cc(-c2nc(C(N)=O)c(Nc3ccc(N4CCC(N5CCN(C)CC5)CC4)cc3)nc2NC2CCOCC2)ccn1 [compound 108]	0.023	0.19	+++ (+++ indicates an inhibition greater than 50%.)
CN1CCN(C2CCN(c3ccc(Nc4nc(N[C@H]5C[C@H](O)C5)c(-c5ccccc5)nc4C(N)=O)cc3)CC2)CC1 [compound 32]	0.026	0.19	+++ (+++ indicates an inhibition greater than 50%.)
CCc1cc(Nc2nc(NC3CCOCC3)c(-c3ccncc3)nc2C(N)=O)ccc1N1CCC(N2CCN(C)CC2)CC1 [compound 161]	0.054	1.2	
CN1CCN(C2CCN(c3ccc(Nc4nc(NC5CCOCC5)c(-c5ccc(O)cc5)nc4C(N)=O)cc3)CC2)CC1 [compound 96]	> 0.1	1.6	++ (++ indicates an inhibition from 20% to 50%)
CCc1cc(Nc2nc(NC3CCOCC3)c(-c3ccnc4[nH]ccc34)nc2C(N)=O)ccc1N1CCC(N2CCN(C)CC2)CC1 [compound 516]	0.042	0.35	
Cc1c[nH]nc1-c1nc(C(N)=O)c(Nc2ccc(N3CCC(N4CCN(C)CC4)CC3)cc2)nc1NC1CCOCC1 [compound 111]	0.105	0.12	+ (+ indicates an inhibition less than or equal to 20%)
CN1CCN(C2CCN(c3ccc(Nc4nc(NC5CCOCC5)c(-c5ccncc5)nc4C(N)=O)cc3F)CC2)CC1 [compound 122]	0.04	0.38	+++ (+++ indicates an inhibition greater than 50%.)
CN1CCN(C2CCN(c3ccc(Nc4nc(N[C@H]5C[C@@H](O)C5)c(-c5ccccc5)nc4C(N)=O)cc3)CC2)CC1 [compound 31]	0.065	0.54	+++ (+++ indicates an inhibition greater than 50%.)
CN1CCN(C2CCN(c3ccc(Nc4nc(O[C@@H]5CCN(CCO)C5)c(-c5ccccc5)nc4C(N)=O)cc3)CC2)CC1 [compound 131]	> 0.1	> 10	

Source: patent US12600714B2, “Substituted pyrazinecarboxamide compounds for treating diseases related to EGFR mutation” (WIGEN BIOMEDICINE TECHNOLOGY (SHANGHAI) CO., LTD., priority 2020, dated 2026)
